Measured values reported in US10781188B2, “Contrast agents” (BRACCO IMAGING S.P.A., priority 2015, dated 2020).

Tests used:
[1] = Relaxivity r1p in physiologic solution (saline), 37° C.; type: physicochemical; details: for r1p at 0.47 T 37° C., saline: 0.47 T (20 MHz); for r1p at 1.41 T 37° C., saline: 1.41 T (60 MHz)
Procedure: (§1) The relaxometric properties of some representative complex compounds according to the invention have been determined at different magnetic field strengths, e.g. including 0.47 and 1.41 T, at 37° C. and in different media (physiologic solution and human plasma) and compared with relaxivity values measured, at the same conditions, for some Gd-Complex of the market having an analogous cyclic coordination cage.
(§2) The longitudinal water proton relaxation rate (R1=1/T1) was measured at 0.47 T with a Minispec MQ-20 spectrometer (Bruker Biospin, Germany) operating at a proton Larmor frequency of 20 MHz; MR experiments at 1.41 T were performed using a Minispec MQ-60 spectrometer (Bruker Biospin, Germany) operating at a proton Larmor frequency of 60 MHz.
(§3) All test articles were used as supplied and diluted in the selected medium (physiologic solution or human plasma) by weighting the required amount of paramagnetic chelated complex to get a 5 or 10 mM starting solution.
(§4) Five different concentration samples (0.1, 0.25, 0.5, 0.75 and 1 mM) for each medium have been prepared by further dilution of the starting 5 or 10 mM solution.
(§5) Relaxivity measurements were performed at 0.47 T and 1.41 T at a preset temperature sample of 37° C., kept constant by means of a thermostatic bath connected to the sample holder of the spectrometer. The five sample solutions have been preliminary pre-heated at 37° C. in an external thermostatic bath and then left 10 minutes inside the internal bath to assure the stabilization of the temperature. Longitudinal relaxation time T1 was measured by means of a standard inversion recovery sequence, where the inversion time (TI) was varied from 10 ms to at least 5 times T1 in 15 steps. Statistical analysis (mono-exponential fitting for T1 measurement, linear fitting for the evaluation of longitudinal relaxivity) was performed by Mathematica® (Wolfram, USA). Errors on the estimated parameters were evaluated by the fitting procedure.

[2] = Relaxivity r1p in human plasma, 37° C.; type: physicochemical; details: for r1p at 0.47 T 37° C., human plasma: 0.47 T (20 MHz); for r1p at 1.41 T 37° C., human plasma: 1.41 T (60 MHz)
Procedure: as §1, §2, §3, §4, §5

Structure (SMILES) | r1p at 0.47 T 37° C., saline [1] [mM⁻¹ s⁻¹] | r1p at 1.41 T 37° C., saline [1] [mM⁻¹ s⁻¹] | r1p at 0.47 T 37° C., human plasma [2] [mM⁻¹ s⁻¹] | r1p at 1.41 T 37° C., human plasma [2] [mM⁻¹ s⁻¹]
O=C(O)CN1CCN(CC(=O)O)CCN(CC(O)CNCP(=O)(O)O)CCN(CC(=O)O)CC1 (centres unmarked) [Chelate Complex 2] | 7.0 | 6.5 | 8.5 | 7.5
O=C(O)CN1CCN(CC(=O)O)CCN(CC(O)CN2CC(CO)(CO)C(O)C(CO)(CO)C2)CCN(CC(=O)O)CC1 (centres unmarked) [Chelate Complex 5] | 7.7 | 7.7 | 9.6 | 8.9
O=C([O-])CN1CCN(CC(=O)O)CCN(CC(=O)O)CCN(CC(O)CNC(CCc2ccccc2)P(=O)(O)[O+]=[Na])CC1 (centres unmarked) [Chelate Complex 6] | 8.3 | 8.2 | 13.8 | 11.9
CCOP(=O)(O)CN(Cc1ccccc1)CC(O)CN1CCN(CC(=O)O)CCN(CC(=O)O)CCN(CC(=O)O)CC1 (centres unmarked) [Chelate Complex 8] | 7.4 | 7.3 | 10.2 | 9.0
O=C(O)CN1CCN(CC(=O)O)CCN(CC(O)CN(CC(=O)O)C(CO)CO)CCN(CC(=O)O)CC1 (centres unmarked) [Chelate Complex 13] | 5.8 | 5.9 | 7.5 | 7.1
O=C(O)CN1CCN(CC(=O)O)CCN(CC(O)CN(CCOCCO)CCOCCO)CCN(CC(=O)O)CC1 (centres unmarked) [Chelate Complex 14] | 6.9 | 6.5 | 8.8 | 8.0
O=C(O)CN1CCN(CC(=O)O)CCN(CC(O)CN(CC(=O)O)C2CCCCC2)CCN(CC(=O)O)CC1 (centres unmarked) [Chelate Complex 19] | 6.5 | 6.1 | 9.1 | 8.05
CN(CC(O)CN1CCN(CC(=O)O)CCN(CC(=O)O)CCN(CC(=O)O)CC1)CC(O)C(O)C(O)C(O)CO (centres unmarked) [Chelate Complex 21] | 6.1 | 6.1 | 8.5 | 8.3
NCC(O)CN1CCN(CC(=O)O)CCN(CC(=O)O)CCN(CC(=O)O)CC1 (centres unmarked) [Comparative 1, reference compound] | 4.3 | 3.8 | 6.25 | 5.3
O=C(O)CN1CCN(CC(=O)O)CCN(CC(=O)O)CCN(CC(=O)O)CC1 [Doratem ®, Gd-DOTA, reference compound] | 3.6 | 3.2 | 4.5 | 3.6
CC(O)CN1CCN(CC(=O)O)CCN(CC(=O)O)CCN(CC(=O)O)CC1 (centres unmarked) [ProHance ®, Gd-HPDO3A, reference compound] | 3.5 | 3.1 | 4.9 | 4.15
